Data from US20260315464A1, “COMPOSITIONS, METHODS, AND SYSTEMS FOR MODULATING SPLICING OF MSH3” (REVIR THERAPEUTICS, INC., priority 2023, published 2026).

System: MSH3
Test: QPCR assay for levels of MSH3 upon compound treatment in HEK293T or AD293 cells (fold-change of MSH3 transcript, EC50 of MSH3 downregulation; total MSH3 exons 13/14, exons 20/21; Table 8)
Format: cell-based
Details: for EC50: EC50 of MSH3 downregulation, XtalPi; for mrna remaining at 1 µM / mrna remaining at 10 µM: Homo sapiens, fold-change of the MSH3 transcript, normalized to GAPDH; for mrna remaining at 1 µM: 1 μM compound; for mrna remaining at 10 µM: 10 μM compound
Summary of the method: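 HEK293T or AD293 cells were treated at 1 μM and […]; RNA-to-cDNA qPCR used TaqMan assays for total MSH3 (exons 13/14, exons 20/21) and poison-exon junctions exon 13/PE14A and exon 20/PE21A. Transcript levels were normalized to GAPDH.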

SMILES: CC[C@]12CC[C@](CC)(C[C@@H](Oc3ccc(N4Cc5ncc(-c6cn(C)nc6C)cc5C4=O)nn3)C1)N2 [Compound 239, 6-(6-(((1R,3s,5S)-1,5-diethyl-8-azabicyclo[3.2.1]octan-3-yl)oxy)pyridazin-3-yl)-3-(1,3-dimethyl-1H-pyrazol-4-yl)-6,7-dihydro-5H-pyrrolo[3,4-b]pyridin-5-one]
- EC50: 2040 nM
- mrna remaining at 1 µM: 84%
- mrna remaining at 10 µM: 19%

SMILES: Cc1nn(C)cc1-c1cc2c(cn1)CN(c1ccc(OC3CC(C)(C)NC4(CCC4)C3)nn1)C2=O (centres unmarked) [Compound 593, 6-(1,3-dimethyl-1H-pyrazol-4-yl)-2-(6-((6,6-dimethyl-5-azaspiro[3.5]nonan-8-yl)oxy)pyridazin-3-yl)-2,3-dihydro-1H-pyrrolo[3,4-c]pyridin-1-one]
- mrna remaining at 1 µM: 105%
- mrna remaining at 10 µM: 34%

SMILES: Cn1nc(Cl)c(-c2cnc3c(c2)C(=O)N(c2ccc(OC4CC(C)(C)NC5(CCC5)C4)nn2)C3)n1 (centres unmarked) [Compound 619, 3-(5-chloro-2-methyl-2H-1,2,3-triazol-4-yl)-6-(6-((6,6-dimethyl-5-azaspiro[3.5]nonan-8-yl)oxy)pyridazin-3-yl)-6,7-dihydro-5H-pyrrolo[3,4-b]pyridin-5-one]
- mrna remaining at 1 µM: 80%
- mrna remaining at 10 µM: 10%

SMILES: CC(C)(O)Cn1ncc(-c2cc(F)c3c(c2)C(=O)N(c2ccc(OC4CC(C)(C)NC(C)(C)C4)nn2)C3)n1 [Compound 635, 4-fluoro-6-(2-(2-hydroxy-2-methylpropyl)-2H-1,2,3-triazol-4-yl)-2-(6-((2,2,6,6-tetramethylpiperidin-4-yl)oxy)pyridazin-3-yl)isoindolin-1-one]
- mrna remaining at 1 µM: 54%
- mrna remaining at 10 µM: 117%

SMILES: Cc1nn(C)nc1-c1cc(C#N)c2c(c1)C(=O)N(c1ccc(N(C)[C@H]3C[C@]4(C)CC[C@](C)(C3)N4)nn1)C2 [Compound 676, 6-(2,5-dimethyl-2H-1,2,3-triazol-4-yl)-2-(6-(((1R,3s,5S)-1,5-dimethyl-8-azabicyclo[3.2.1]octan-3-yl)(methyl)amino)pyridazin-3-yl)-1-oxoisoindoline-4-carbonitrile]
- mrna remaining at 1 µM: 48%
- mrna remaining at 10 µM: 17%

SMILES: CN(c1ncc(N2Cc3ccc(-c4cnn(C)n4)cc3C2=O)nn1)C1CC(C)(C)NC(C)(C)C1 [Compound 420, 2-(3-(methyl(2,2,6,6-tetramethylpiperidin-4-yl)amino)-1,2,4-triazin-6-yl)-6-(2-methyl-2H-1,2,3-triazol-4-yl)isoindolin-1-one]
- mrna remaining at 1 µM: 74%
- mrna remaining at 10 µM: 73%

SMILES: CC(C)[C@H]1CN(c2ccc(N3Cc4c(F)cc(-c5cnn(C)n5)cc4C3=O)nn2)CCN1 [Compound 629, (S)-4-fluoro-2-(6-(3-isopropylpiperazin-1-yl)pyridazin-3-yl)-6-(2-methyl-2H-1,2,3-triazol-4-yl)isoindolin-1-one]
- mrna remaining at 1 µM: 74%
- mrna remaining at 10 µM: 62%

SMILES: CN(c1ccc(N2Cc3c(F)cc(-n4nccn4)cc3C2=O)nn1)[C@H]1C[C@]2(C)CC[C@](C)(C1)N2 [Compound 673, 2-(6-(((1R,3s,5S)-1,5-dimethyl-8-azabicyclo[3.2.1]octan-3-yl)(methyl)amino)pyridazin-3-yl)-4-fluoro-6-(2H-1,2,3-triazol-2-yl)isoindolin-1-one]
- mrna remaining at 1 µM: 91%
- mrna remaining at 10 µM: 33%

SMILES: CN(c1ccc(N2Cc3ncc(-c4nn(C)nc4Cl)cc3C2=O)nn1)C1CC(C)(C)NC2(CCC2)C1 (centres unmarked) [Compound 621, 3-(5-chloro-2-methyl-2H-1,2,3-triazol-4-yl)-6-(6-((6,6-dimethyl-5-azaspiro[3.5]nonan-8-yl)(methyl)amino)pyridazin-3-yl)-6,7-dihydro-5H-pyrrolo[3,4-b]pyridin-5-one]
- EC50: 229 nM

SMILES: CN(c1ccc(N2Cc3c(O)cc(-c4nn(C)nc4Cl)cc3C2=O)nn1)[C@H]1C[C@]2(C)CC[C@](C)(C1)N2 [Compound 689, 6-(5-chloro-2-methyl-2H-1,2,3-triazol-4-yl)-2-(6-(((1R,3s,5S)-1,5-dimethyl-8-azabicyclo[3.2.1]octan-3-yl)(methyl)amino)pyridazin-3-yl)-4-hydroxyisoindolin-1-one]
- mrna remaining at 1 µM: 88%
- mrna remaining at 10 µM: 27%
